Assay [1] has as its target T1, first (BD1: amino acids K57-E168) bromodomain of BRD4 (Homo sapiens, UniProt O60885).
T1 construct: His-tagged first (BD1: amino acids K57-E168)
The assay can be described thus: TR-FRET bromodomain binding assay, BRD4 BD1. The conditions noted are these: Ki calculated from IC50, probe Kd and probe concentration, read-out: TR-FRET Binding Ki: BRD4 (BDI_K57-E168). The method, then: (§1) A time-resolved fluorescence resonance energy transfer (TR-FRET) assay was used to determine the affinities of compounds of the Examples listed in Table 1 for each bromodomain of BRD4. His-tagged first (BD1: amino acids K57-E168) and second (BD2: amino acids E352-E168) bromodomains of BRD4 were expressed and purified. An Alexa647-labeled BET-inhibitor was used as the fluorescent probe in the assay.
(§2) Compound dilution series were prepared in DMSO via an approximately 3-fold serial dilution from one of the following:
(§3) or 5-fold serial dilution from one of the following:
(§4) Assay method A: 2.5 mM-800 nM
(§5) For Assay methods A, C, D, and F: Compounds were then diluted 6:100 in assay buffer (20 mM Sodium Phosphate, pH 6.0, 50 mM NaCl, 1 mM Ethylenediaminetetraacetic acid, 0.01% Triton X-100, 1 mM DL-Dithiothreitol) to yield 3× working solutions. […] of this solution were added to the assay plate to reach a final volume of 18 μL.
(§6) TR-FRET data were normalized to the means of 24 no-compound controls (“high”) and 8 controls containing 1 μM un-labeled probe (“low”). Percent inhibition was plotted as a function of compound concentration and the data were fit with the 4 parameter logistic equation to obtain IC50s. Inhibition constants (Ki) were calculated from the IC50s, probe Kd and probe concentration. Typical Z′ values were between 0.65 and 0.75.

In assay [2] the target is T2, second (BD2: amino acids E352-E168) bromodomain of BRD4 (Homo sapiens, UniProt O60885).
T2 construct: protocol
As to the kind of experiment: TR-FRET bromodomain binding assay, BRD4 BD2. The conditions noted are these: Ki calculated from IC50, probe Kd and probe concentration, read-out: TR-FRET Binding Ki: BRD4 (BDII_E352-M457). The method, then:
as §1, §2, §3, §4, §5, §6

The mark [3] stands for this setting: TR-FRET assay protocol (D, E or G) per compound.
Setting [4] is: TR-FRET assay protocol (A-G, compound concentration range).

In US9561231B2 (AbbVie Inc., priority 2012, dated 2017) one finds Ki data, which are given here for 27 molecules.

SMILES strings stand for the structures. Read-outs that look alike come from different tables or passages of the source.

`CCOc1cc(=O)n(C)cc1-c1cc(NS(=O)(=O)CC)ccc1OC1CCN(c2ccc(C(F)(F)F)cc2)CC1` [Example 410, N-[3-(4-ethoxy-1-methyl-6-oxo-1,6-dihydropyridin-3-yl)-4-({1-[4-(trifluoromethyl)phenyl]piperidin-4-yl}oxy)phenyl]ethanesulfonamide]: the Ki (usually a dissociation constant, usually derived from enzyme kinetics or from competition with a known ligand) is 590 nM in assay [1] (setting [3]) and 560 nM in assay [2] (setting [3]).

Turning to `CNC(=O)c1cc(=O)n(C)cc1-c1cc(NS(C)(=O)=O)ccc1Oc1ccc(F)cc1F` [Example 276, 5-{2-(2,4-difluorophenoxy)-5-[(methylsulfonyl)amino]phenyl}-N,1-dimethyl-2-oxo-1,2-dihydropyridine-4-carboxamide], the Ki is 916 nM in assay [1] (setting [4]) and 570 nM in assay [2] (setting [4]).

Turning to `CCOC(=O)Nc1cc(-c2cc(S(=O)(=O)CC)ccc2OCC2CC2)cn(C)c1=O` [Example 338, ethyl{5-[2-(cyclopropylmethoxy)-5-(ethylsulfonyl)phenyl]-1-methyl-2-oxo-1,2-dihydropyridin-3-yl}carbamate], the results for the Ki in assay [1] (setting [4]) and in assay [2] (setting [4]) were 114 nM and 702 nM, respectively.

Regarding `Cn1nc(-c2ccccc2Oc2ccccc2)c(-c2ccnc(N)c2)cc1=O` [Example 200, 5-(2-aminopyridin-4-yl)-2-methyl-6-(2-phenoxyphenyl)pyridazin-3(2H)-one], the Ki in assay [1] (setting [4]) was 344 nM; in assay [2] (setting [4]), 971 nM.

`Cn1nc(-c2ccccc2Oc2ccccc2)c(-c2ccc(C(=O)N3CCCC3)cc2)cc1=O` [Example 183, 2-methyl-6-(2-phenoxyphenyl)-5-[4-(pyrrolidin-1-ylcarbonyl)phenyl]pyridazin-3(2H)-one]: the results for the Ki in assay [1] (setting [4]) and in assay [2] (setting [4]) were 256 nM and 166 nM, respectively.

In the case of `CCS(=O)(=O)Nc1cc(-c2ccc(=O)n(C)c2)c(OCC2CC2)cc1C` [Example 366, N-[4-(cyclopropylmethoxy)-2-methyl-5-(1-methyl-6-oxo-1,6-dihydropyridin-3-yl)phenyl]ethanesulfonamide], the Ki in assay [1] (setting [4]) is 629 nM; in assay [2] (setting [4]), 570 nM.

Take `Cn1nc(-c2ccccc2Oc2ccccc2)c(-c2cncc(NC3CCCC3)c2)cc1=O` [Example 143, 5-[5-(cyclopentylamino)pyridin-3-yl]-2-methyl-6-(2-phenoxyphenyl)pyridazin-3(2H)-one]: the Ki is 3200 nM in assay [1] (setting [4]) and 5470 nM in assay [2] (setting [4]).

`CCS(=O)(=O)c1ccc(OCC2CC2)c(-c2cc(N)c(=O)n(C)c2)c1` [Example 357, 3-amino-5-[2-(cyclopropylmethoxy)-5-(ethylsulfonyl)phenyl]-1-methylpyridin-2(1H)-one]: the Ki in assay [1] (setting [4]) is 159 nM; in assay [2] (setting [4]), 1420 nM.

On to `CCOc1cc(=O)n(C)cc1-c1cc(NS(=O)(=O)c2ccc(-c3ccccc3)cc2)ccc1Oc1ccc(F)cc1F` [Example 309, N-[4-(2,4-difluorophenoxy)-3-(4-ethoxy-1-methyl-6-oxo-1,6-dihydropyridin-3-yl)phenyl]biphenyl-4-sulfonamide], for which the Ki in assay [1] (setting [4]) is 359 nM; in assay [2] (setting [4]) it was 151 nM.

Take `Cn1nc(-c2ccccc2Oc2ccccc2)c(C2CCN(C(=O)OC(C)(C)C)CC2)cc1=O` [Example 86, tert-butyl 4-[1-methyl-6-oxo-3-(2-phenoxyphenyl)-1,6-dihydropyridazin-4-yl]piperidine-1-carboxylate]: the Ki in assay [1] (setting [4]) was > 13000 nM; in assay [2] (setting [4]) it was 2740 nM.

As to `Cn1nc(-c2ccccc2Oc2ccccc2)c(-c2cccc(N3CCOCC3)c2)cc1=O` [Example 139, 2-methyl-5-[3-(morpholin-4-yl)phenyl]-6-(2-phenoxyphenyl)pyridazin-3(2H)-one], the Ki was > 1520 nM in assay [1] (setting [4]) and 879 nM in assay [2] (setting [4]).

Turning to `COc1cccc(-c2cc(=O)n(C)nc2-c2ccccc2Oc2ccccc2)c1` [Example 197, 5-(3-methoxyphenyl)-2-methyl-6-(2-phenoxyphenyl)pyridazin-3(2H)-one], the Ki in assay [1] (setting [4]) was 1060 nM; in assay [2] (setting [4]), 725 nM.

As for `Cn1nc(-c2ccccc2Oc2ccccc2)c(-c2ccc(OCC(F)(F)F)nc2)cc1=O` [Example 140, 2-methyl-6-(2-phenoxyphenyl)-5-[6-(2,2,2-trifluoroethoxy)pyridin-3-yl]pyridazin-3(2H)-one], the Ki in assay [1] (setting [4]) is > 13000 nM; in assay [2] (setting [4]) it was 8210 nM.

As for `CCS(=O)(=O)Nc1ccc(Oc2ccc(F)cc2F)c(-c2cn(C)c(=O)cc2-c2ccccc2O)c1` [Example 331, N-{4-(2,4-difluorophenoxy)-3-[4-(2-hydroxyphenyl)-1-methyl-6-oxo-1,6-dihydropyridin-3-yl]phenyl}ethanesulfonamide], the inhibition constant Ki is 164 nM in assay [1] (setting [4]) and 551 nM in assay [2] (setting [4]).

In the case of `Cn1nc(-c2ccccc2Oc2ccccc2)c(-c2ccc(S(=O)(=O)N3CCCC3)cc2)cc1=O` [Example 178, 2-methyl-6-(2-phenoxyphenyl)-5-[4-(pyrrolidin-1-ylsulfonyl)phenyl]pyridazin-3(2H)-one], the values for the Ki in assay [1] (setting [4]) and in assay [2] (setting [4]) were 3340 nM and 4540 nM, respectively.

Turning to `Cn1nc(-c2ccccc2Oc2ccccc2)c(-c2ccc(C(=O)NC3CCCC3)cc2)cc1=O` [Example 169, N-cyclopentyl-4-[1-methyl-6-oxo-3-(2-phenoxyphenyl)-1,6-dihydropyridazin-4-yl]benzamide], the Ki is 599 nM in assay [1] (setting [4]) and 562 nM in assay [2] (setting [4]).

On to `COc1cc(=O)n(C)nc1-c1ccccc1OCc1ccccn1` [Example 40, 5-methoxy-2-methyl-6-[2-(pyridin-2-ylmethoxy)phenyl]pyridazin-3(2H)-one], for which the Ki in assay [1] (setting [4]) is 9480 nM; in assay [2] (setting [4]) it was 20100 nM.

With `CCOc1cc(=O)n(C)cc1-c1cc(NS(=O)(=O)c2ccc(Cl)cc2F)ccc1Oc1ccc(F)cc1F` [Example 348, 4-chloro-N-[4-(2,4-difluorophenoxy)-3-(4-ethoxy-1-methyl-6-oxo-1,6-dihydropyridin-3-yl)phenyl]-2-fluorobenzenesulfonamide], the Ki was 196 nM in assay [1] (setting [4]) and 63.1 nM in assay [2] (setting [4]).

For the molecule `Cn1nc(-c2ccccc2Oc2ccc(S(C)(=O)=O)cc2)ccc1=O` [Example 8, 2-methyl-6-{2-[4-(methylsulfonyl)phenoxy]phenyl}pyridazin-3(2H)-one], the Ki was 8590 nM in assay [1] (setting [4]) and 17800 nM in assay [2] (setting [4]).

Take `Cn1nc(-c2ccccc2Oc2ccccc2)c(-c2cncc3ccccc23)cc1=O` [Example 118, 5-(isoquinolin-4-yl)-2-methyl-6-(2-phenoxyphenyl)pyridazin-3(2H)-one]: the Ki in assay [1] (setting [4]) is > 13000 nM; in assay [2] (setting [4]) it was 17200 nM.

On to `Cn1nc(-c2ccccc2Oc2ccccc2)c(-c2ccc(C(=O)N3CCOCC3)cc2)cc1=O` [Example 147, 2-methyl-5-[4-(morpholin-4-ylcarbonyl)phenyl]-6-(2-phenoxyphenyl)pyridazin-3(2H)-one], for which the figures for the Ki in assay [1] (setting [4]) and in assay [2] (setting [4]) were 260 nM and 168 nM, respectively.

As for `CCS(=O)(=O)Nc1ccc(Oc2ccc(F)cc2F)c(-c2cn(C)c(=O)cc2OCCN(C)C)c1` [Example 288, N-(4-(2,4-difluorophenoxy)-3-(4-(2-(dimethylamino)ethoxy)-1-methyl-6-oxo-1,6-dihydropyridin-3-yl)phenyl)ethanesulfonamide], the Ki was 190 nM in assay [1] (setting [4]) and 551 nM in assay [2] (setting [4]).

As to `Cc1ccncc1-c1cc(=O)n(C)nc1-c1ccccc1Oc1ccccc1` [Example 207, 2-methyl-5-(4-methylpyridin-3-yl)-6-(2-phenoxyphenyl)pyridazin-3(2H)-one], the Ki in assay [1] (setting [4]) was 7020 nM; in assay [2] (setting [4]), 11800 nM.

For the molecule `CN1CCN(c2cc(-c3cc(=O)n(C)nc3-c3ccccc3Oc3ccccc3)ccn2)CC1` [Example 174, 2-methyl-5-[2-(4-methylpiperazin-1-yl)pyridin-4-yl]-6-(2-phenoxyphenyl)pyridazin-3(2H)-one], the figures for the Ki in assay [1] (setting [4]) and in assay [2] (setting [4]) were 854 nM and 764 nM, respectively.

As for `CC(C)CCn1cc(-c2cc(=O)n(C)nc2-c2ccccc2Oc2ccccc2)cn1` [Example 129, 2-methyl-5-[1-(3-methylbutyl)-1H-pyrazol-4-yl]-6-(2-phenoxyphenyl)pyridazin-3(2H)-one], the figures for the Ki in assay [1] (setting [4]) and in assay [2] (setting [4]) were 520 nM and 264 nM, respectively.

For `Cn1nc(-c2ccccc2Oc2ccccc2)c(-c2ccc(NCc3ccccc3)nc2)cc1=O` [Example 164, 5-[6-(benzylamino)pyridin-3-yl]-2-methyl-6-(2-phenoxyphenyl)pyridazin-3(2H)-one], the Ki in assay [1] (setting [4]) is 1510 nM; in assay [2] (setting [4]), 245 nM.

`Cn1nc(-c2ccccc2Oc2ccccc2)c(-c2ccc(N3CCNCC3)nc2)cc1=O` [Example 151, 2-methyl-6-(2-phenoxyphenyl)-5-[6-(piperazin-1-yl)pyridin-3-yl]pyridazin-3(2H)-one]: the figures for the Ki in assay [1] (setting [4]) and in assay [2] (setting [4]) were 400 nM and 258 nM, respectively.
